From patent US11758905B2, “Amphotericin B and β-1,3-glucanase loaded bi-functional nano-system with both targets, preparation method and application thereof” (QINGDAO AGRICULTURAL UNIVERSITY, priority 2021, dated 2023)

Assays:
Assay type in all cases: cell-based
Candida albicans BF 1 = assay: Minimum inhibitory concentration determination; conditions: clinical isolate BF 1; 24 h, 37° C.
Description: (§1) Fungus strain: Candida albicans DAY185; 3 clinical isolates of Candida albicans, obtained from Medical University of Vienna, named as Candida albicans BF 1, BF 2 and BF 3.
(§2) 100 μl of Candida albicans (1×10^6 CFU/mL) is added to a 96-pore plate containing different concentrations (2, 1, 0.5, 0.25, 0.125, 0.0625 or 0 μg/mL) of free AmpB and CSNP-AmpB-Gls. The micropore plate is rotated at a rotation speed of 150 rpm and incubated at 37° C. for 24 h. The minimum inhibitory concentration is defined as the minimum AmpB concentration at which visible growth cannot be detected.

Candida albicans BF 2 = assay: Minimum inhibitory concentration determination; conditions: clinical isolate BF 2; 24 h, 37° C.
Description: as §1, §2

Candida albicans BF 3 = assay: Minimum inhibitory concentration determination; conditions: clinical isolate BF 3; 24 h, 37° C.
Description: as §1, §2

Candida albicans DAY185 = assay: Minimum inhibitory concentration determination; conditions: strain DAY 185; 24 h, 37° C.; minimum AmpB concentration without visible growth
Description: as §1, §2

[1] = test system: Candida albicans biofilm on silica gel; assay: Influence on medical silica gel surface biofilm (CLSM viable/dead staining, SEM)
Description: The biofilm on a silica gel is treated by free AmpB and NPs by following the method described above. The biofilm structure is studied through a scanning electron microscope. The biofilm survivability is observed with CLSM, and viable/dead fungus staining kit is used for staining, […]

C[C@@H]1[C@H](O)[C@@H](C)/C=C/C=C/C=C/C=C/C=C/C=C/C=C/[C@H](O[C@@H]2O[C@H](C)[C@@H](O)[C@H](N)[C@@H]2O)C[C@@H]2O[C@](O)(C[C@@H](O)C[C@@H](O)[C@H](O)CC[C@@H](O)C[C@@H](O)CC(=O)O[C@H]1C)C[C@H](O)[C@H]2C(=O)O [AmpB, amphotericin B]
AmpB MIC (Candida albicans BF 1): 2 µg/mL | AmpB MIC (Candida albicans BF 2): 2 µg/mL | AmpB MIC (Candida albicans BF 3): 4 µg/mL | AmpB MIC (Candida albicans DAY185): 1 µg/mL | biofilm structure change by SEM ([1]; silica gel, FIG. 6): significantly reduces fungus colonization | cell viability of the biofilm on silica gel by CLSM ([1]; viable/dead staining, FIG. 5): green (viable cells) is significantly reduced
